In ChEMBL document CHEMBL5126518, “Quercetin derivatives: Drug design, development, and biological activities, a review” (Eur J Med Chem, 2022):
≈ marks a conversion by molar mass, not a printed value.

Experiments:
[1] = Competitive inhibition of xanthine oxidase (unknown origin) at 0.05 uM using xanthine as substrate preincubated with substrate for 1 min followed by compound addition by double beam spectrophotometer analysis relative to control
[2] = target: UDP-galactopyranose mutase (Mycobacterium tuberculosis, UniProt P9WIQ1); experiment: Binding affinity to Mycobacterium tuberculosis UGM assessed as dissociation constant by fluorescence polarization assay
UDP-galactopyranose mutase, sequence (P9WIQ1 whole entry): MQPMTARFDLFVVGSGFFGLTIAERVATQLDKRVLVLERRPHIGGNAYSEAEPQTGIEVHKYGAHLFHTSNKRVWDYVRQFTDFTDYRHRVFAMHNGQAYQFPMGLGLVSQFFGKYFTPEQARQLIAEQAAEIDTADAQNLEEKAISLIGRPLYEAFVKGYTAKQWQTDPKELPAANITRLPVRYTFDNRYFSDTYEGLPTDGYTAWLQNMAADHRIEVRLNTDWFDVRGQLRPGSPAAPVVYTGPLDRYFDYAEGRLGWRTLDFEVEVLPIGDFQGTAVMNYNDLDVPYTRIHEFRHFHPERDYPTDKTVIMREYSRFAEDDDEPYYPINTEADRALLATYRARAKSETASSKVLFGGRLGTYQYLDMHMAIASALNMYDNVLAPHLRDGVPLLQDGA

[3] = target: UDP-galactopyranose mutase (Mycobacterium tuberculosis) (UniProt P9WIQ1); experiment: Inhibition of Mycobacterium tuberculosis UGM at 20 uM by HPLC inhibition assay relative to control
UDP-galactopyranose mutase (Mycobacterium tuberculosis), sequence (P9WIQ1 whole entry, looked up): as the sequence (P9WIQ1 whole entry) above

[4] = test system: MDA-MB-231; experiment: Antiproliferative activity against human MDA-MB-231 cells assessed as cell growth inhibition measured after 48 hrs by MTT assay; assay type: functional, cell-based; details: MDA-MB-231, 48 h
[5] = test system: MDA-MB-231; experiment: Antiproliferative activity against human MDA-MB-231 cells assessed as cell growth inhibition measured after 48 hrs by MTT assay relative to control; assay type: functional; set-up: scale not given: the % may be the effect or the level left
[6] = Antioxidant activity assessed as DPPH radical scavenging activity after 30 mins under dark condition; assay type: functional
[7] = target: Type-1 angiotensin II receptor (Homo sapiens, UniProt P30556); experiment: Inhibition of human AT1R expressed in HEK293 cells by non-linear regression analysis; assay type: cell-based
Type-1 angiotensin II receptor, sequence (P30556 whole entry): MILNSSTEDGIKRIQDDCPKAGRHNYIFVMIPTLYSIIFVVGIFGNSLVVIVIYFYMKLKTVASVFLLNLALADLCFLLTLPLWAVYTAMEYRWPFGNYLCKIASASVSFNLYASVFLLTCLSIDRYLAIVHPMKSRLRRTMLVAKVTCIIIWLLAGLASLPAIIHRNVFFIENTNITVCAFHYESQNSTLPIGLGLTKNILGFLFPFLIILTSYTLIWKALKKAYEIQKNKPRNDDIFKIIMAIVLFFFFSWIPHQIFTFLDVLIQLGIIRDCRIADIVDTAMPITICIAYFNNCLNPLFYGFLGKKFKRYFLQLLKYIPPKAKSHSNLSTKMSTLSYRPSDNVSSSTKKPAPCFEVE

[8] = Inhibition of Escherichia coli topoisomerase 2 supercoiling activity by gel electrophoresis
[9] = Inhibition of Escherichia coli topoisomerase 4 decatenation activity by gel electrophoresis
[10] = test system: MCF7; experiment: Antiproliferative activity against human MCF7 assessed as reduction in cell viability incubated for 48 hrs by MTT assay; assay type: functional
[11] = test system: LN-229; experiment: Antiproliferative activity against human LN-229 cells assessed as reduction in cell viability incubated for 48 hrs by SRB assay; assay type: functional
[12] = test system: U-87 MG; experiment: Antiproliferative activity against human U87 cells assessed as reduction in cell viability incubated for 48 hrs by SRB assay; assay type: functional, U-87MG ATCC
[13] = test system: Influenza A virus; experiment: Antiviral activity against influenza A/PR/8/34 H1N1 virus infected in MDCK cells assessed as cell growth inhibition measured after 48 hrs by SRB assay; assay type: functional, organism-based; details: A/PR/8/34 H1N1, MDCK
[14] = Cytotoxicity against MDCK cells assessed as reduction in cell viability incubated for 48 hrs by SRB assay; assay type: toxicity, cell-based, Canis lupus familiaris; details: dog
[15] = test system: Klebsiella pneumoniae; experiment: Antibacterial activity against Klebsiella pneumoniae ATCC 13883 assessed as cell growth inhibition incubated for 18 hrs by agar overlay method; assay type: functional
[16] = test system: Enterobacter cloacae; experiment: Antibacterial activity against Enterobacter cloacae assessed as cell growth inhibition incubated for 18 hrs by agar overlay method; assay type: functional
[17] = test system: Proteus mirabilis; experiment: Antibacterial activity against Proteus mirabilis assessed as cell growth inhibition incubated for 18 hrs by agar overlay method; assay type: functional
[18] = test system: Escherichia coli; experiment: Antibacterial activity against Escherichia coli ATCC 25922 assessed as cell growth inhibition incubated for 18 hrs by agar overlay method; assay type: functional
[19] = test system: Bacillus subtilis; experiment: Antibacterial activity against Bacillus subtilis ATCC 6633 assessed as cell growth inhibition incubated for 18 hrs by agar overlay method; assay type: functional
[20] = test system: Staphylococcus aureus; experiment: Antibacterial activity against Staphylococcus aureus ATCC 6538 assessed as cell growth inhibition incubated for 18 hrs by agar overlay method; assay type: functional
[21] = test system: Bacillus cereus; experiment: Antibacterial activity against Bacillus cereus NAS 596 assessed as cell growth inhibition incubated for 18 hrs by agar overlay method; assay type: functional
[22] = test system: Heyndrickxia coagulans; experiment: Antibacterial activity against Bacillus coagulans assessed as cell growth inhibition incubated for 18 hrs by agar overlay method; assay type: functional

O=c1oc2c(O)ccc(-c3oc4cc(O)cc(O)c4c(=O)c3O)c2s1
inhibition [1]: 50%

O=c1c(O)c(-c2ccc(O)c(O)c2)oc2c(CN3CCCCC3)c(O)cc(O)c12
Kd [2]: > 2000 µM
inhibition [3]: 23.2%

COc1cc(OC)c2/c(=[S+]/C)c(OC)c(-c3ccc(OC)c(OC)c3)oc2c1.[I-]
IC50 [4]: 1.84 µM
Activity [5]: 38.1%
Activity [6]: 0.05 mM

CCCCc1nc(Cl)c(COC(=O)CCC(=O)Oc2ccc(-c3oc4cc(O)cc(O)c4c(=O)c3O)cc2O)n1Cc1ccc(-c2ccccc2-c2nnn[nH]2)cc1
IC50 [7]: 0.14 µM

COc1ccc(CNCc2c(O)cc(O)c3c(=O)cc(-c4ccc(O)c(O)c4)oc23)cc1
IC50 [8]: 0.25 µg/mL (≈ 0.574 µM)
IC50 [9]: 0.25 µg/mL (≈ 0.574 µM)

O=c1c(O)c(-c2ccc(O)c(O)c2)oc2c(CN3CCSCC3)c(O)cc(O)c12
inhibition [3]: 57.9%

O=c1c(O)c(-c2ccc(O)c(O)c2)oc2c(CN3CCCC3)c(O)cc(O)c12
Kd [2]: > 2000 µM
inhibition [3]: 47.8%

O=c1c(O)c(-c2ccc(O)c(O)c2)oc2c(CN3CCOCC3)c(O)cc(O)c12
inhibition [3]: 100%

COc1cc(-c2oc3cc(O)cc(O)c3c(=O)c2O[C@@H]2O[C@H](C(=O)[O-])[C@@H](O)[C@H](O)[C@H]2O)ccc1O.[Na+]
Activity [10]: 49.8%

CCCCc1nc(Cl)c(COC(=O)CCC(=O)Oc2cc(-c3oc4cc(O)cc(O)c4c(=O)c3O)ccc2O)n1Cc1ccc(-c2ccccc2-c2nnn[nH]2)cc1
Activity [11]: 39%
Activity [12]: 38%
IC50 [7]: 0.14 µM

O=c1c(O)c(-c2ccc(O)c(O)c2)oc2cc(O[C@H]3O[C@H](CO)[C@@H](O)[C@H](O)[C@H]3O)cc(O)c12
IC50 [13]: 2.1 µg/mL (≈ 4.52 µM)
CC50 at 48 h [14]: > 100 µg/mL

O=c1c(O)c(-c2ccccc2)oc2cc(O)cc(O)c12 [GALANGIN]
MIC [15]: 0.25 µg/mL (≈ 0.925 µM)
MIC [16]: 0.25 µg/mL (≈ 0.925 µM)
MIC [17]: 0.25 µg/mL (≈ 0.925 µM)
MIC [18]: 0.25 µg/mL (≈ 0.925 µM)
MIC [19]: 0.25 µg/mL (≈ 0.925 µM)
MIC [20]: 0.25 µg/mL (≈ 0.925 µM)
MIC [21]: 0.25 µg/mL (≈ 0.925 µM)
MIC [22]: 0.25 µg/mL (≈ 0.925 µM)

COc1cc(OC)c2/c(=N/c3cc(OC)c(OC)c(OC)c3)c(OC)c(-c3ccc(OC)c(OC)c3)oc2c1
IC50 [6]: 220 µM
